System: Mycobacterium tuberculosis
Assay: Induction of resistant in Mycobacterium tuberculosis H37Rv in Middlebrook 7H9 broth with glucose at 10 times MIC after 4 to 5 weeks relative to control
Assay type: functional

O=C(Nc1nc(-c2ccccn2)cs1)c1cccc(Br)c1
fold change (FC): 2

— ChEMBL document CHEMBL2440116, “Structure-activity relationships of 2-aminothiazoles effective against Mycobacterium tuberculosis” (Bioorg Med Chem, 2013)
